According to patent US20250129055A1, “GLUCOSIDE DERIVATIVE, AND PREPARATION METHOD THEREFOR AND APPLICATION THEREOF” (BEIJING INCREASE INNOVATIVE DRUG CO., LTD., priority 2020, published 2025):
Values belong to the compound of their own block, whether it stands above or below them.

Molecular target: SGLT2 (Homo sapiens (Human), UniProt P31639)
Test: In vitro SGLT2 inhibitory activity: 1-NBDG uptake by CHO-SGLT2 cells
Assay type: cell-based
Settings: for IC50: CHO-SGLT2 cells, 1-NBDG uptake, read-out: IC50 inhibiting SGLT2
Method: The effect of the compounds on SGLT2-mediated glucose uptake was investigated by establishing an SGLT2 overexpression cell model and using the fluorescent glucose (2-deoxy-1-[(7-nitro-2,1,3-benzoxadiazol-4-yl)amino]-D-glucose, 1-NBDG) tracer method to screen out candidate compounds with SGLT2 inhibitory activity.
The humanized SGLT2 overexpression cells (CHO-SGLT2) constructed from Chinese hamster ovary (CHO) cells were cultured in 1640 medium (Gibco) containing 10% fetal bovine serum (Gibco, 10270), subcultured at a ratio of 1:3, and replaced with new culture medium 3 times every week. Fluorescence detection cell culture plates and other culture flasks were purchased from Corning Company. […] Appropriate amounts of all compounds were weighed, prepared into 100 mM stock solutions with DMSO, and stored at 4° C. in the dark.
Before the 1-NBDG uptake test, CHO-SGLT2 cells were digested and seeded in a 96-well cell culture plate with a cell number of 40,000/well. After the cells were cultured for 48 h, the medium was discarded, and 100 μl of choline buffer was added to each well. After the cells were starved at 37° C. for 30 min, the choline buffer was discarded and 100 μl of the newly prepared Na^+ sodium buffer containing […] 1-NBDG and the test compounds (Compound) was added. The solvent DMSO was used as the negative control (Control) for the test compounds.
The Na^+ sodium buffer without 1-NBDG was used as the blank control (Blank). After 1 h of culture, the incubation solution was discarded. The cells were washed with choline buffer solution 3 times, and then 50 μl of neutral lysate was added to each well to lyse the cells on ice for 10 min. The fluorescence value of each well was detected using a multi-functional microplate reader at […].
At least 3 experimental replicates were set for each compound at indicated concentrations, and the data were expressed as mean±SEM. Uptake amount of 1-NBDG by cells=fluorescence value1-NBDG-fluorescence valueBlank. Inhibition rate on uptake amount of SGLT2 glucose (%)=(uptake amountcontrol−uptake amountcompound)/uptake amountcontrol×100%. Concentration-inhibition rate curves were plotted using Graphpad Prism software, and IC50 values were calculated accordingly.

SGLT2, sequence (P31639 whole entry): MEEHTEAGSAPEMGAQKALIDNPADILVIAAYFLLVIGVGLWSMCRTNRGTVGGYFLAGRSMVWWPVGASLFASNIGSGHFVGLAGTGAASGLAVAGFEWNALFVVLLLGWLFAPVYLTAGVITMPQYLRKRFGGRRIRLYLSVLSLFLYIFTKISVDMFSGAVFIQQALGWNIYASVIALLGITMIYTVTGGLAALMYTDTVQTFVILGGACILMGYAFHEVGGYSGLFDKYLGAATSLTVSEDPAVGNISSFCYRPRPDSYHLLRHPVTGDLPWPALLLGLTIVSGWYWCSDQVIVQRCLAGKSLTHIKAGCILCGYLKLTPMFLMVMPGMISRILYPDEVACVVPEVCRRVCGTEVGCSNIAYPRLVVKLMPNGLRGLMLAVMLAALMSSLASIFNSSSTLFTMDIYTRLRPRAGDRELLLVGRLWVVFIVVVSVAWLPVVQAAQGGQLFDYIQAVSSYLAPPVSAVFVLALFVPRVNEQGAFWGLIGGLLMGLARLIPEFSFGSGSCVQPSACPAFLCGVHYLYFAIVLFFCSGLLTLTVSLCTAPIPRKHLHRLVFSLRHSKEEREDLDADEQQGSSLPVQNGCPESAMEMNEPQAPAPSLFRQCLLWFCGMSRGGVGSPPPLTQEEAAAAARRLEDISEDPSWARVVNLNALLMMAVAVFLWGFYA

Compound: CCOc1ccc(Oc2cc([C@H]3O[C@H](CO)[C@@H](O)[C@H](O)[C@H]3O)ccc2Cl)cc1 [Compound 3, (2R,3R,4R,5S,6R)-2-[4-chloro-3-(4-ethoxyphenoxy)phenyl]-6-(hydroxymethyl)oxane-3,4,5-triol]
IC50: 6.75 nM | Inhibition rate of compounds on SGLT2 (%) (compound concentration 1 × 10^−5 mol/L): 96.4 ± 8.4% | Inhibition rate of compounds on SGLT2 (%) (compound concentration 5 × 10^−7 mol/L): 78.7 ± 1.9% | Inhibition rate of compounds on SGLT2 (%) (compound concentration 5 × 10^−8 mol/L): 71.7 ± 1.7% | Inhibition rate of compounds on SGLT2 (%) (compound concentration 5 × 10^−9 mol/L): 42.8 ± 2.3% | Inhibition rate of compounds on SGLT2 (%) (compound concentration 5 × 10^−10 mol/L): 8.7 ± 2.1% | Inhibition rate of compounds on SGLT2 (%) (compound concentration 5 × 10^−11 mol/L): 3.7 ± 4.2%

Compound: CS[C@H]1O[C@@H](c2ccc(C)c(Cc3ccc4c(c3)CCCO4)c2)[C@H](O)[C@@H](O)[C@@H]1O [Compound 8]
IC50: 0.356 nM

Compound: CS[C@H]1O[C@@H](c2ccc(C)c(Cc3ccc4c(c3)CC4)c2)[C@H](O)[C@@H](O)[C@@H]1O [Compound 12]
IC50: 1.01 nM

More lines, now with the values ahead:

IC50: 3.32 nM
Compound: OC[C@H]1O[C@@H](c2ccc(F)c(Cc3ccc4c(c3)OCCO4)c2)[C@H](O)[C@@H](O)[C@@H]1O [Compound 27]

IC50: 2.26 nM
Compound: CS[C@H]1O[C@@H](c2cc3c(c(Cc4ccc5c(c4)OCCO5)c2)CCC3)[C@H](O)[C@@H](O)[C@@H]1O [Compound 5]
